Measurements reported in patent publication US4129737A, “Process for the preparation of an 8-alkyl-5-oxo-5,8-dihydro-pyrido(2,3-d)pyrimidine-6-carboxylic acid” (priority 1972, dated 1978).
Converted amounts (≈) assume the structure as drawn. Where two headings read alike, the source gives them in different places.

Tests used:
Assay type in all cases: cell-based
Esch. Coli 95 = assay: Minimum inhibitory concentration by agar dilution, Esch. Coli 95; settings: Escherichia coli
Protocol: (§1) (a) Trypticase soya medium (T.S.A.), which is very suitable for culturing the majority of microorganisms; it has the following composition:
(§2) (b) Ordinarily nutrient agar (N.A.), which is less rich in nutrients, corresponds to the following formulation: […]
(§3) Table I gives the minimum inhibitory concentrations (expressed in μg/cm^3) for the various microorganisms tested on each medium.
(§4) The products were tested on three Gram positive microorganisms (1 to 3) […] and on 10 Gram negative microorganisms (4 to 13).
(§5) Table (II) gives the minimum inhibitory concentrations of the compounds of Examples XII to XVI, determined on the agar medium, N.A., and expressed in μg/cm^3.

Pr. mirabilis = assay: Minimum inhibitory concentration by agar dilution, Pr. mirabilis; settings: Proteus mirabilis
Protocol: as §1, §2, §3, §4, §5

B. subtilis = assay: Minimum inhibitory concentration by agar dilution, B. subtilis; settings: Bacillus subtilis
Protocol: as §1, §2, §3, §4, §5

Pr. morganii = assay: Minimum inhibitory concentration by agar dilution, Pr. morganii; settings: Morganella morganii
Protocol: as §1, §2, §3, §4, §5

Pr. vulgaris = assay: Minimum inhibitory concentration by agar dilution, Pr. vulgaris; settings: Proteus vulgaris
Protocol: as §1, §2, §3, §4, §5

Staphylococcus 209 P = assay: Minimum inhibitory concentration by agar dilution, Staphylococcus 209 P
Protocol: as §1, §2, §3, §4, §5

Bord. bronchiseptica = assay: Minimum inhibitory concentration by agar dilution, Bord. bronchiseptica; settings: Bordetella bronchiseptica
Protocol: as §1, §2, §3, §4, §5

Salm. typhi = assay: Minimum inhibitory concentration by agar dilution, Salm. typhi; settings: Salmonella enterica, 18 h
Protocol: as §1, §2, §3, §4, §5

Sh. sonnei = assay: Minimum inhibitory concentration by agar dilution, Sh. sonnei; settings: Shigella sonnei
Protocol: as §1, §2, §3, §4, §5

Streptococcus = assay: Minimum inhibitory concentration by agar dilution, Streptococcus Group A
Protocol: as §1, §2, §3, §4, §5

B. pyocyaneus A22 = assay: Minimum inhibitory concentration by agar dilution, B. pyocyaneus A22; settings: Pseudomonas aeruginosa
Protocol: as §1, §2, §3, §4, §5

Klebs. pneumoniae = assay: Minimum inhibitory concentration by agar dilution, Klebs. pneumoniae; settings: Klebsiella pneumoniae
Protocol: as §1, §2, §3, §4, §5

B. pyocyaneus TUR = assay: Minimum inhibitory concentration by agar dilution, B. pyocyaneus TUR; settings: Pseudomonas aeruginosa, 37° C., 18 hours
Protocol: as §1, §2, §3, §4

[1] = 18 h, agar medium, N.A., Table II, read-out: minimum inhibitory concentration
[2] = 18 h, read-out: minimum inhibitory concentration
[3] = 18 h, agar medium, N.A., Table II (Staphylococcus 20 P [sic]), read-out: minimum inhibitory concentration
[4] = read-out: minimum inhibitory concentration
[5] = A22, 18 h, agar medium, N.A., Table II, read-out: minimum inhibitory concentration
[6] = N.A. (nutrient agar, pH 6.8), 37° C., 18 hours, Table I, read-out: minimum inhibitory concentration (M.I.C.)
[7] = T.S.A. (trypticase soya medium, pH 7.3), 37° C., 18 hours, read-out: minimum inhibitory concentration (M.I.C.)
[8] = 18 h, pH 6.8, read-out: minimum inhibitory concentration (M.I.C.)

`CCCN1CCN(c2ncc3c(=O)c(C(=O)O)cn(CC)c3n2)CC1` [XIII, 2-(4'-Propyl-piperazino)-5-oxo-8-ethyl-5,8-dihydro-pyrido(2,3-d)pyrimidine-6-carboxylic acid] gave an MIC (Esch. Coli 95; [1]) of 50 mg/L (≈ 145 µM), an MIC (Pr. mirabilis; [2]) of 12.5 mg/L (≈ 36.2 µM) and an MIC (B. subtilis; [1]) of 3.1 mg/L (≈ 8.98 µM). It also gave an MIC (Pr. morganii; [1]) of 6.2 mg/L (≈ 18 µM), an MIC (Pr. vulgaris; [1]) of 6.2 mg/L (≈ 18 µM) and an MIC (Staphylococcus 209 P; [3]) of 6.2 mg/L (≈ 18 µM). It also gave an MIC (Bord. bronchiseptica; [2]) of 12.5 mg/L (≈ 36.2 µM), an MIC (Salm. typhi; [4]) of 12.5 mg/L (≈ 36.2 µM) and an MIC (Sh. sonnei; [1]) of 1.6 mg/L (≈ 4.63 µM). It also gave an MIC (Streptococcus; [1]) of 6.2 mg/L (≈ 18 µM), an MIC (B. pyocyaneus A22; [5]) of 100 mg/L (≈ 290 µM) and an MIC (Klebs. pneumoniae; [1]) of 1.6 mg/L (≈ 4.63 µM).

With `CCn1cc(C(=O)O)c(=O)c2cnc(N3CCN(Cc4ccc(OC)cc4)CC3)nc21` [XVI, 2-(4'-p-Methoxybenzyl-piperazino)-5-oxo-8-ethyl-5,8-dihydro-pyrido(2,3-d)pyrimidine-6-carboxylic acid] the MIC (Esch. Coli 95; [1]) was 3.1 mg/L (≈ 7.32 µM), the MIC (Pr. mirabilis; [1]) was 12.5 mg/L (≈ 29.5 µM) and the MIC (B. subtilis; [1]) was 50 mg/L (≈ 118 µM). It also gave an MIC (Pr. morganii; [1]) of 1.6 mg/L (≈ 3.78 µM), an MIC (Pr. vulgaris; [1]) of 6.2 mg/L (≈ 14.6 µM) and an MIC (Staphylococcus 209 P; [3]) of 0.4 mg/L (≈ 0.945 µM). It also gave an MIC (Bord. bronchiseptica; [1]) of 12.5 mg/L (≈ 29.5 µM), an MIC (Salm. typhi; [4]) of 1.6 mg/L (≈ 3.78 µM) and an MIC (Sh. sonnei; [1]) of 0.8 mg/L (≈ 1.89 µM). It also gave an MIC (Streptococcus; [1]) of 0.8 mg/L (≈ 1.89 µM), an MIC (B. pyocyaneus A22; [5]) of 12.5 mg/L (≈ 29.5 µM) and an MIC (Klebs. pneumoniae; [1]) of 0.2 mg/L (≈ 0.472 µM).

For `Cn1cc(C(=O)O)c(=O)c2cnc(N3CCN(CCO)CC3)nc21` [Example XI, 2-(4'-β-Hydroxyethyl-piperazino)-5-oxo-8-methyl-5,8-dihydropyrido(2,3-d)pyrimidine-6-carboxylic acid], the MIC (Esch. Coli 95; [6]) was 1.6 mg/L (≈ 4.8 µM), the MIC (Esch. Coli 95; [7]) was 25 mg/L (≈ 75 µM) and the MIC (Pr. mirabilis; [6]) was 6.2 mg/L (≈ 18.6 µM). It also gave an MIC (Pr. mirabilis; [7]) of 25 mg/L (≈ 75 µM), an MIC (B. subtilis; [8]) of 12.5 mg/L (≈ 37.5 µM) and an MIC (B. subtilis; [7]) of 100 mg/L (≈ 300 µM). The MIC (Pr. morganii; [6]) was 3.1 mg/L (≈ 9.3 µM), the MIC (Pr. morganii; [7]) was 25 mg/L (≈ 75 µM) and the MIC (Pr. vulgaris; [6]) was 25 mg/L (≈ 75 µM). The MIC (Pr. vulgaris; [7]) was 50 mg/L (≈ 150 µM), the MIC (Staphylococcus 209 P; Staphylococcus, N.A. (nutrient agar, pH 6.8), 37° C., 18 hours, Table I, read-out: minimum inhibitory concentration (M.I.C.)) was 25 mg/L (≈ 75 µM) and the MIC (Staphylococcus 209 P; Staphylococcus, T.S.A. (trypticase soya medium, pH 7.3), 37° C., 18 hours, read-out: minimum inhibitory concentration (M.I.C.)) was > 100 mg/L. It also gave an MIC (Bord. bronchiseptica; [8]) of 12.5 mg/L (≈ 37.5 µM), an MIC (Bord. bronchiseptica; [7]) of 100 mg/L (≈ 300 µM) and an MIC (Salm. typhi; pH 6.8, read-out: minimum inhibitory concentration (M.I.C.)) of 6.2 mg/L (≈ 18.6 µM). The MIC (Salm. typhi; pH 7.3, read-out: minimum inhibitory concentration (M.I.C.)) was 50 mg/L (≈ 150 µM), the MIC (B. pyocyaneus TUR; N.A. (nutrient agar, pH 6.8), Table I) was 100 mg/L (≈ 300 µM) and the MIC (B. pyocyaneus TUR; T.S.A. (trypticase soya medium, pH 7.3), read-out: minimum inhibitory concentration (M.I.C.)) was > 100 mg/L. For the same compound, the MIC (Sh. sonnei; [6]) was 1.6 mg/L (≈ 4.8 µM), the MIC (Sh. sonnei; [7]) was 12.5 mg/L (≈ 37.5 µM) and the MIC (Streptococcus; [6]) was 25 mg/L (≈ 75 µM). For the same compound, the MIC (Streptococcus; [7]) was > 100 mg/L, the MIC (B. pyocyaneus A22; A22, N.A. (nutrient agar, pH 6.8), 37° C., 18 hours, Table I, read-out: minimum inhibitory concentration (M.I.C.)) was 100 mg/L (≈ 300 µM) and the MIC (B. pyocyaneus A22; A22, T.S.A. (trypticase soya medium, pH 7.3), 37° C., 18 hours, read-out: minimum inhibitory concentration (M.I.C.)) was > 100 mg/L. The MIC (Klebs. pneumoniae; 18 h, pH 7.3, read-out: minimum inhibitory concentration (M.I.C.)) was 12.5 mg/L (≈ 37.5 µM) and the MIC (Klebs. pneumoniae; [6]) was 3.1 mg/L (≈ 9.3 µM).

Compound `CCn1cc(C(=O)O)c(=O)c2cnc(N3CCN(Cc4ccc(Cl)cc4)CC3)nc21` [XV, 2-(4'-p-Chlorobenzyl-piperazino)-5-oxo-8-ethyl-5,8-dihydro-pyrido(2,3-d)pyrimidine-6-carboxylic acid] has an MIC (Esch. Coli 95; [1]) of 100 mg/L (≈ 234 µM), an MIC (Pr. mirabilis; [2]) of 12.5 mg/L (≈ 29.2 µM) and an MIC (B. subtilis; [1]) of 1.6 mg/L (≈ 3.74 µM). It also gave an MIC (Pr. morganii; [1]) of 6.2 mg/L (≈ 14.5 µM), an MIC (Pr. vulgaris; [2]) of 12.5 mg/L (≈ 29.2 µM) and an MIC (Staphylococcus 209 P; [3]) of 0.8 mg/L (≈ 1.87 µM). It also gave an MIC (Bord. bronchiseptica; [1]) of 3.1 mg/L (≈ 7.24 µM), an MIC (Salm. typhi; [4]) of 12.5 mg/L (≈ 29.2 µM) and an MIC (Sh. sonnei; [1]) of 1.6 mg/L (≈ 3.74 µM). For the same compound, the MIC (Streptococcus; [1]) was 1.6 mg/L (≈ 3.74 µM), the MIC (B. pyocyaneus A22; [5]) was 50 mg/L (≈ 117 µM) and the MIC (Klebs. pneumoniae; [1]) was 0.8 mg/L (≈ 1.87 µM).
